Where two headings read alike, the source gives them in different places.
Experiments:
RdFucI [1] = assay type: biochemical, Raoultella sp. KDH 14
RdFucI [2] = assay: Substrate specificity of RdFucI; assay type: biochemical, Raoultella sp. KDH 14; details: aldose and ketose substrates tested
From the text: In general, sugar isomerases show reactivity for various sugars. As a result of testing with various aldoses (L-fucose, D-arabinose, D-altrose, D-galactose, D-mannose and D-glucose) and ketose substrates (L-fuculose, D-ribulose, D-psicose, D-tagatose and D-fructose), the highest activity was shown against L-fuculose (115.3 U/mg) and D-ribulose (127.3 U/mg), showing much higher activities compared to activities for the other tested aldose and ketose substrates.

[3] = pH effect on RdFucI activity for fuculose; assay type: biochemical, Raoultella sp. KDH 14
[4] = biological target: the molecule itself; assay: crystal structure, self-association of subunits
[5] = Temperature effect on RdFucI activity for fuculose; assay type: biochemical, Raoultella sp. KDH 14
From the text: (80% or more of the maximum activity) (FIG. 5a).

[6] = Reversible reaction between L-fucose and L-fuculose by RdFucI; assay type: biochemical, Raoultella sp. KDH 14; details: 10 mM substrate, 20 mM sodium phosphate pH 7, 1.5 μg RdFucI, 30° C., 1 mM MnCl2
Method: In order to identify what kind of reaction RdFucI favored in a reaction between fucose and fuculose, a reversible reaction of the recombinant enzyme was investigated over time. For this purpose, 10 mM L-fucose (FIG. 4a) or L-fuculose (FIG. 4b) included in 20 mM sodium phosphate (pH7) was used as a substrate, and was each reacted with 1.5 μg of RdFucI at 30° C. in the presence of 1 mM MnCl2, and L-fucose was experimentally quantified. In contrast, L-fuculose was expressed as a calculated value.

[7] = effect of metal ion on RdFucI activity, fuculose as substrate, Control = 100

Molecule | effect of metal ion on enzyme activity (in words) (RdFucI [1]; RdFucI) | Relative activity (%) (RdFucI [1]; [7]) | further results
[Ca+2].[Cl-].[Cl-] [CaCl2] | inhibit the enzyme activity | 64 ± 8% | –
[Cl][Cd][Cl] [CdCl2] | increase the enzyme activity | 183 ± 9% | –
[Cl-].[Cl-].[Co+2] [CoCl2] | – | – | Relative activity (%) (RdFucI [1]): 353 ± 83%; effect of metal ion on enzyme activity (in words) (RdFucI [1]): increase the enzyme activity
[Cl-].[Cs+] [CsCl2] | – | 101 ± 16% | –
[Cl][Cu][Cl] [CuCl2] | inhibit the enzyme activity | 58 ± 7% | –
O=C(CO)[C@H](O)[C@H](O)CO [D-ribulose] | – | – | activity of RdFucI against substrate (RdFucI [2]): 127.3 U/mg
O=C(O)CN(CCN(CC(=O)O)CC(=O)O)CC(=O)O [EDTA] | – | – | Relative activity (%) (RdFucI [1]): 77 ± 12%
[Cl][Fe]([Cl])[Cl] [FeCl3] | inhibit the enzyme activity | 74 ± 3% | –
C[C@H](O)[C@@H](O)[C@@H](O)C(=O)CO [L-fuculose] | – | – | activity of RdFucI against substrate (RdFucI [2]): 115.3 U/mg
O=S(=O)([O-])[O-].[Li+].[Li+] [LiSO4] | – | 101 ± 15% | –
[Cl-].[Cl-].[Mg+2] [MgCl2] | increase the enzyme activity | 533 ± 31% | –
[Cl][Mn][Cl] [MnCl2] | increase the enzyme activity | 738 ± 70% | increase of enzyme activity in the presence of the metal ion (RdFucI [1]; RdFucI, fuculose as substrate): about 7 fold
[Cl][Ni][Cl] [NiCl2] | – | 91 ± 13% | –
[Cl-].[Cl-].[Zn+2] [ZnCl2] | increase the enzyme activity | 159 ± 4% | –
Tris-HCl [Tris-HCl buffer] | – | – | RdFucI activity in the buffer versus other buffer types at the same pH (in words) ([3]; pH 7, 8 and 9, 50 mM, 40° C.): much lower
L-fucose isomerase derived from Raoultella sp. KDH 14 strain (enzyme, also called RdFucI; Rd FucI) MKRISLPKIGIRPVIDGRRMGVRESLEAQTMNMAKATAALISEKLRHACGAQIECVIADTCIAGMAESAACEEKFSRQNVGVTITVTPCWCYGSETIDMDPLRPKAIWGFNGTERPGAVYLAAALAAHSQKGIPAFSIYGHDVQDADDTTIPADVEEKLLRFARAGLAVASMKGKSYLSVGGVSMGIAGSIVDHNFFESWLGMKVQAVDMTELRRRIDQKIYDEVELEMALAWADKNFRYGEDQNAQHYKRDEEQSRAVLKESLLMAMCIRDMMQGNEKLAEKGLLEESLGYNAIAAGFQGQRHWTDQYPNGDTAEALLNSSFDWNGVREPFVVATENDSLNGVAMLMGHQLTGTAQVFADVRTYWSPDAVERVTGQPLTGLAEHGIIHLINSGSAALDGSCQQRDEEGKPTMKPHWEISQKEADACLAATEWCPAIHEYFRGGGYSSRFLTEGGVPFTMTRVNLIKGLGPVLQIAEGWSVELPKAMHDQLDARTNSTWPTTWFAPRLTGKGPFADVYSVMANWGANHGVLTIGHVGADFITLAAMLRIPVCMHNVEEGKIYRPSSWSAHGMDTEGQDYRACQNYGPLYKR | – | – | binding result [4]: binds
RdFucI: L-fucose isomerase of Raoultella sp. KDH 14, amino acid sequence SEQ ID NO: 1, 591 amino acids (protein, Raoultella sp. KDH 14) MKRISLPKIGIRPVIDGRRMGVRESLEAQTMNMAKATAALISEKLRHACGAQIECVIADTCIAGMAESAACEEKFSRQNVGVTITVTPCWCYGSETIDMDPLRPKAIWGFNGTERPGAVYLAAALAAHSQKGIPAFSIYGHDVQDADDTTIPADVEEKLLRFARAGLAVASMKGKSYLSVGGVSMGIAGSIVDHNFFESWLGMKVQAVDMTELRRRIDQKIYDEVELEMALAWADKNFRYGEDQNAQHYKRDEEQSRAVLKESLLMAMCIRDMMQGNEKLAEKGLLEESLGYNAIAAGFQGQRHWTDQYPNGDTAEALLNSSFDWNGVREPFVVATENDSLNGVAMLMGHQLTGTAQVFADVRTYWSPDAVERVTGQPLTGLAEHGIIHLINSGSAALDGSCQQRDEEGKPTMKPHWEISQKEADACLAATEWCPAIHEYFRGGGYSSRFLTEGGVPFTMTRVNLIKGLGPVLQIAEGWSVELPKAMHDQLDARTNSTWPTTWFAPRLTGKGPFADVYSVMANWGANHGVLTIGHVGADFITLAAMLRIPVCMHNVEEGKIYRPSSWSAHGMDTEGQDYRACQNYGPLYKR | – | – | relative activity, of the maximum activity, at 30, 40 and 50° C. ([5]; 10 mM substrate, 1.5 μg enzyme, pH 7): ≥ 80%; temperature of highest activity ([5]; 10 mM substrate, 1.5 μg enzyme, pH 7, 10 to 80° C.): 40 °C; enzyme activity out of the 30 to 50° C. range ([5]; L-fuculose as substrate): less than 50%; relative maximum activity at pH 6 to 11 ([3]; sodium acetate, sodium phosphate and glycine-NaOH buffers): ≥ 70%; reaction rate of reverse reaction (L-fuculose to L-fucose) versus forward reaction [6]: about 5 fold

From US20220282237A1, “NOVEL FUCOSE ISOMERASE AND FUCOSE PRODUCTION METHOD USING SAME” (Korea University Research and Business Foundation, priority 2019, published 2022)
